Source: PMC9866095, “Efficient Synthesis and In Vitro Hypoglycemic Activity of Rare Apigenin Glycosylation Derivatives” (Molecules, 2023)

target: α-glucosidase; test: pNPG hydrolysis, absorbance at […] nm, commercial enzyme; format: biochemical

SMILES | IC50
O=c1cc(-c2ccc(O)cc2)oc2cc(O[C@@H]3O[C@H](CO)[C@@H](O)[C@H](O)[C@H]3O)cc(O)c12 [AG, apigenin-7-O-β-(6″-O)-D-glucoside] | 532 µM
O=c1cc(-c2ccc(O)cc2)oc2cc(O)cc(O)c12 [Apigenin] | 525 µM
O=C(O)CCC(=O)OC[C@H]1O[C@@H](Oc2cc(O)c3c(=O)cc(-c4ccc(O)cc4)oc3c2)[C@H](O)[C@@H](O)[C@@H]1O [SAG, apigenin-7-O-β-(6″-O-succinyl)-D-glucoside] | 485 µM
